Results taken from patent US20250281478A1, “METHODS FOR PREVENTING OR TREATING KIDNEY DISEASES” (JEAMOON BEIJING CO., LTD., priority 2022, published 2025).

Legend:
[1] = test system: mice with adenine-induced renal failure; test: Serum creatinine (CREA) in adenine-induced renal failure mice; format: in vivo, C57BL/6N mice; details: for CREA after modeling for 3 weeks (after drug administration for 2 weeks) / CREA after modeling for 1 week (before drug administration): mean ± SD
Procedure: (§1) • a) Control group: Fed with adenine-free feed; other procedures were the same as those in the model group. • b) Model group: Fed with feed containing 0.25% adenine for modelling. • c) LY-10 mg/kg group: Model+LY2922470 (10 mg/kg, p.o., QD). • d) LY-30 mg/kg group: Model+LY2922470 (30 mg/kg, p.o., QD). • e) LY-60 mg/kg group: Model+LY2922470 (60 mg/kg, p.o., QD). • f) TAK875 group: Model+TAK875 (30 mg/kg, p.o., QD).
(§2) Except for the control group, all other mice were fed with a diet containing 0.25% adenine for modelling. The control group was fed with a normal diet. All mice were allowed free access to food. One week after modeling, each group of mice was administered the respective treatment via oral gavage once daily in the afternoon for two consecutive weeks. The control group and the model group received vehicle under a same condition. The adenine-containing diet was continuously administered for modeling throughout the treatment period until the end of the experiment. The physical condition of the mice was monitored, and body weight was measured and recorded weekly. Blood samples were collected from the orbital venous plexus at 1 week (post-modeling) and 3 weeks (after 2 weeks of treatment). Serum was separated for the measurement of serum creatinine (CRE) and blood urea nitrogen (BUN). At the end of the two-week treatment, renal function of each group was assessed using a TGFR renal function monitoring and smart analysis system. After testing, tissues were collected from the mice to confirm the efficacy of the treatment.
(§3) Statistical analyses were performed using GraphPad Prism 8.0 software. Continuous data of each group were expressed as mean+SD. One-way ANOVA was used for multi-group comparisons, and Student's t-test was used for comparisons between two groups. A p-value<0.05 was considered statistically significant. For categorical data, chi-square tests were used to compare between groups, with p<0.05 indicating a statistically significant difference.
(§4) Mice were fed a 0.25% adenine-containing diet. After one week, the mice were treated with LY2922470 or TAK875. During the treatment period, the adenine-containing diet was continued for modeling. After three weeks of adenine feeding (i.e., two weeks of drug administration), blood samples were collected from the mice, and serum was isolated for CREA and BUN measurements.

[2] = test system: mice with adenine-induced renal failure; test: Blood urea nitrogen (BUN) in adenine-induced renal failure mice; format: in vivo, C57BL/6N mice; details: for BUN after modeling for 3 weeks (after drug administration for 2 weeks) / BUN after modeling for 1 week (before drug administration): mean ± SD
Procedure: as §1, §2, §3, §4

[3] = test system: mice with two-week adenine-induced renal failure; test: Glomerular filtration rate in mice with two-week adenine-induced renal failure; format: in vivo, C57BL/6N mice; details: adenine diet replaced with normal chow after two weeks; LY2922470 p.o.; FIG. 5
Source text: Therefore, the modeling protocol was redesigned to re-evaluate the therapeutic effect of LY2922470 on renal failure (the adenine diet was replaced with normal chow after two weeks of feeding; other conditions remained unchanged).

[4] = test system: TGF-β1-induced HK-2 cells; test: RT-PCR of fibrosis markers in TGF-β1-induced HK-2 cells; format: cell-based, human; details: 10 ng/ml TGF-β1 + LY2922470 10, 50, 500 nM, 48 hours, FIG. 7
Procedure: • Group A: Control • Group B: TGF-β1 (10 ng/ml) • Group C: TGF-β1 (10 ng/ml)+LY (10 nM) • Group D: TGF-β1 (10 ng/ml)+LY (50 nM) • Group E: TGF-1 (10 ng/ml)+LY (500 nM)
(§5) HK-2 cells were cultured in MEM supplemented with 10% FBS and 1% penicillin-streptomycin solution. The HK-2 cells were taken from liquid nitrogen and quickly thawed in a 37° C. water bath, gently agitated to thaw the cryopreservation medium. After thawing, the cell suspension was transferred to a centrifuge tube containing 3 mL of culture medium and centrifuged at 1000 rpm for 5 min at room temperature to collect the cells. The supernatant was discarded. The cell pellet was resuspended in complete medium (10% FBS) and seeded into culture dishes. The cells were gently pipetted to ensure uniform distribution and incubated at 37° C. with 5% CO2 and saturated humidity.
HK-2 cells in a logarithmic growth phase and with good viability were seeded into 24-well plates at a density of 1×10^5 cells/well. Once the cells reached 40-50% confluence, treatments were applied according to the grouping described above: Group A: HK-2 cells were cultured normally; Group B was treated with 10 ng/ml TGF-β1; Group C was treated with 10 ng/ml TGF-β1 and 10 nM LY2922470; Group D was treated with 10 ng/ml TGF-β1 and 50 nM LY2922470; and Group E was treated with 10 ng/ML TGF-β1 and 500 nM LY2922470. […]

[5] = test system: high glucose-induced HK-2 cells; test: RT-PCR of fibrosis markers in high glucose-induced HK-2 cells; format: cell-based, human; details: 25 mM D-glucose + LY2922470 10, 50, 500 nM, 48 hours, FIG. 8
Procedure: • Group A: Control • Group B: HG (25 mM) • Group C: HG (25 mM)+LY (10 nM) • Group D: HG (25 mM)+LY (50 nM) • Group E: HG (25 mM)+LY (500 nM)
as §5
Once cells reached 40%-50% confluency, they were treated according to the grouping described above: Group A received normal HK-2 culture; Group B was treated with 25 mM D-glucose (high glucose); Group C was treated with 25 mM D-glucose and 10 nM LY2922470; Group D was treated with 25 mM D-glucose and 50 nM LY2922470; and Group E was treated with 25 mM D-glucose and 500 nM LY2922470. After 48 hours of culture, samples were collected from each group for RT-PCR analysis.

[6] = LY2922470 30 mg/kg p.o. QD for 2 weeks
[7] = LY2922470 at different doses p.o. QD for 2 weeks
[8] = based on Tables 2 and 3 (CREA and BUN), p.o.
[9] = baseline of the LY2922470 10 mg/kg group
[10] = baseline of the LY2922470 30 mg/kg group
[11] = baseline of the LY2922470 60 mg/kg group

CC#C[C@@H](CC(=O)O)c1ccc(OCc2ccc(CN3CCCc4cccc(OC)c43)s2)cc1 [LY2922470]
CREA level compared with the model group [1, 6]: significantly decreased
CREA after modeling for 3 weeks (after drug administration for 2 weeks) ([1]; LY2922470 30 mg/kg p.o. QD): 79.67 ± 19.28 µmol/L
CREA level compared with the model group ([1]; LY2922470 60 mg/kg p.o. QD for 2 weeks): significantly decreased
CREA after modeling for 3 weeks (after drug administration for 2 weeks) ([1]; LY2922470 60 mg/kg p.o. QD): 66.47 ± 13.35 µmol/L
Serum CREA level compared with the model group [1, 7]: reduced
Dose with the best effect (CREA, BUN) [1, 8]: 30 mg/kg/day
Doses with therapeutic efficacy (CREA, BUN) [1, 8]: 30 to 60 mg/kg/day
CREA after modeling for 1 week (before drug administration) [1, 9]: 56.14 ± 13.41 µmol/L
CREA after modeling for 1 week (before drug administration) [1, 10]: 54.85 ± 17.55 µmol/L
CREA after modeling for 1 week (before drug administration) [1, 11]: 57.02 ± 11.90 µmol/L
BUN level compared with the model group [2, 6]: statistically significant reduction
BUN after modeling for 3 weeks (after drug administration for 2 weeks) ([2]; LY2922470 30 mg/kg p.o. QD): 15.15 ± 4.53 mmol/L
BUN after modeling for 3 weeks (after drug administration for 2 weeks) ([2]; LY2922470 60 mg/kg p.o. QD): 13.85 ± 1.33 mmol/L
Serum BUN level compared with the model group [2, 7]: reduced
BUN after modeling for 1 week (before drug administration) [2, 9]: 10.34 ± 3.55 mmol/L
BUN after modeling for 1 week (before drug administration) [2, 10]: 10.25 ± 3.42 mmol/L
BUN after modeling for 1 week (before drug administration) [2, 11]: 10.40 ± 3.83 mmol/L
Renal function (GFR) compared with the model group [3]: significantly improved
Expression level of Fibronectin (RT-PCR) compared to the TGF-β1 group [4]: dose-dependent decrease
Expression level of α-SMA (RT-PCR) compared to the TGF-β1 group [4]: dose-dependent decrease
Expression level of Fibronectin (RT-PCR) compared to the high-glucose group [5]: reduced
Expression level of α-SMA (RT-PCR) compared to the high-glucose group [5]: reduced
